Source: ChEMBL document CHEMBL4184210, “Optimization of novel monobactams with activity against carbapenem-resistant Enterobacteriaceae - Identification of LYS228” (Bioorg Med Chem Lett, 2018)
Values after ≈ are worked out from the molar mass of the structure shown. Active and inactive are the calls of the source. No cut-off for these calls is given here.

Assays:
Escherichia coli [1] = assay: microbe, parasite or virus in culture
[2] = Stability assessed as assessed as Escherichia coli beta-lactamase KPC-2-mediated compound hydrolysis by measuring molar enthalpy of hydrolysis at 1 mM by isothermal titration calorimetry; format: ADME; conditions: 1000 µM
Escherichia coli [3] = assay: microbe, parasite or virus in culture; remark: listed apart in the source
Escherichia coli [4] = assay: microbe, parasite or virus in culture; remark: listed apart in the source
Klebsiella pneumoniae = assay: Antimicrobial activity against Klebsiella pneumoniae expressing beta-lactamase NDM-1 infected in neutropenic mouse thigh infection model assessed as compound dose causing 1 log10 CFU reduction in bacterial load dosed subcutaneously every 4 hrs; format: functional
[5] = AUC in dog at 10 mg/kg, iv; format: ADME, organism-based, Canis lupus familiaris; conditions: in vivo
Escherichia coli [6] = assay: microbe, parasite or virus in culture; remark: listed apart in the source
Escherichia coli [7] = assay: microbe, parasite or virus in culture; remark: listed apart in the source
Beta-lactamase SHV-12 = biological target: T1, Beta-lactamase SHV-12 (Escherichia coli, UniProt Q7X574); assay: Stability assessed as assessed as Escherichia coli beta-lactamase SHV-12-mediated compound hydrolysis by measuring molar enthalpy of hydrolysis at 1 mM by isothermal titration calorimetry; format: ADME; conditions: 1000 µM
T1 sequence (Q7X574 whole entry): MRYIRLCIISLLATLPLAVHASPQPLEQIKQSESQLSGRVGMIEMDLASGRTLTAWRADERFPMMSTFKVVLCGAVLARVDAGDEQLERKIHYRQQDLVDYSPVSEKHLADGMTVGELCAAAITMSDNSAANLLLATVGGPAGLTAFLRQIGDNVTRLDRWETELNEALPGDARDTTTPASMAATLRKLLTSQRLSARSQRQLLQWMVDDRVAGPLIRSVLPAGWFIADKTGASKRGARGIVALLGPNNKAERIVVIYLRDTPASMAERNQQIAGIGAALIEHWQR

Escherichia coli [8] = assay: microbe, parasite or virus in culture; remark: listed apart in the source
[9] = Stability assessed as assessed as Escherichia coli beta-lactamase CTX-M-15-mediated compound hydrolysis by measuring molar enthalpy of hydrolysis at 1 mM by isothermal titration calorimetry; format: ADME; conditions: 1000 µM
Escherichia coli [10] = assay: microbe, parasite or virus in culture; remark: listed apart in the source
[11] = Drug excretion in rat assessed as unchanged parent drug level at 10 mg/kg, iv; format: ADME, organism-based; conditions: in vivo, read-out: Drug excretion
[12] = AUC in mouse at […], iv; format: ADME, organism-based; conditions: in vivo
Escherichia coli [13] = assay: microbe, parasite or virus in culture; remark: listed apart in the source
[14] = Drug excretion in dog assessed as unchanged parent drug level at 10 mg/kg, iv; format: ADME, organism-based, Canis lupus familiaris; conditions: in vivo, read-out: Drug excretion
Escherichia coli [15] = assay: microbe, parasite or virus in culture; remark: listed apart in the source
Escherichia coli [16] = assay: microbe, parasite or virus in culture; remark: listed apart in the source
Escherichia coli [17] = assay: microbe, parasite or virus in culture; remark: listed apart in the source
Escherichia coli [18] = assay: microbe, parasite or virus in culture; remark: listed apart in the source
Escherichia coli [19] = assay: microbe, parasite or virus in culture; remark: listed apart in the source
Escherichia coli [20] = assay: microbe, parasite or virus in culture; remark: listed apart in the source
Escherichia coli [21] = assay: microbe, parasite or virus in culture; remark: listed apart in the source
Escherichia coli [22] = assay: microbe, parasite or virus in culture; remark: listed apart in the source
[23] = AUC in rat at 10 mg/kg, iv; format: ADME, organism-based; conditions: in vivo
Escherichia coli [24] = assay: microbe, parasite or virus in culture; remark: listed apart in the source
Escherichia coli [25] = assay: microbe, parasite or virus in culture; remark: listed apart in the source
Escherichia coli [26] = assay: Antimicrobial activity against Escherichia coli expressing beta-lactamase KPC-2 by CLSI broth microdilution method; format: functional
Escherichia coli [27] = assay: microbe, parasite or virus in culture; remark: listed apart in the source
Escherichia coli [28] = assay: microbe, parasite or virus in culture; remark: listed apart in the source
Escherichia coli [29] = assay: microbe, parasite or virus in culture; remark: listed apart in the source
Escherichia coli [30] = assay: microbe, parasite or virus in culture; remark: listed apart in the source
Escherichia coli [31] = assay: microbe, parasite or virus in culture; remark: listed apart in the source
Escherichia coli [32] = assay: microbe, parasite or virus in culture; remark: listed apart in the source
Escherichia coli [33] = assay: microbe, parasite or virus in culture; remark: listed apart in the source
Escherichia coli [34] = assay: microbe, parasite or virus in culture; remark: listed apart in the source
Escherichia coli [35] = assay: microbe, parasite or virus in culture; remark: listed apart in the source
Escherichia coli [36] = assay: microbe, parasite or virus in culture; remark: listed apart in the source
Escherichia coli [37] = assay: Antimicrobial activity against Escherichia coli expressing beta-lactamase NDM-1 by CLSI broth microdilution method; format: functional
Escherichia coli [38] = assay: microbe, parasite or virus in culture; remark: listed apart in the source
Escherichia coli [39] = assay: microbe, parasite or virus in culture; remark: listed apart in the source
Escherichia coli [40] = assay: microbe, parasite or virus in culture; remark: listed apart in the source
Escherichia coli [41] = assay: microbe, parasite or virus in culture; remark: listed apart in the source
Escherichia coli [42] = assay: Antimicrobial activity against Escherichia coli expressing beta-lactamase NDM-5 by CLSI broth microdilution method; format: functional
Escherichia coli [43] = assay: microbe, parasite or virus in culture; remark: listed apart in the source
Escherichia coli [44] = assay: microbe, parasite or virus in culture; remark: listed apart in the source
Escherichia coli [45] = assay: microbe, parasite or virus in culture; remark: listed apart in the source
Escherichia coli [46] = assay: microbe, parasite or virus in culture; remark: listed apart in the source
Escherichia coli [47] = assay: microbe, parasite or virus in culture; remark: listed apart in the source
Escherichia coli [48] = assay: microbe, parasite or virus in culture; remark: listed apart in the source
Escherichia coli [49] = assay: microbe, parasite or virus in culture; remark: listed apart in the source
Escherichia coli [50] = assay: microbe, parasite or virus in culture; remark: listed apart in the source
[51] = Chemical stability in pH 7.4 potassium phosphate buffer assessed as half life for compound hydrolysis at 37 degC by UPLC and mass spectrometry; format: physicochemical
Escherichia coli [52] = assay: Antimicrobial activity against Escherichia coli expressing beta-lactamase VEB-1 by CLSI broth microdilution method; format: functional

C[C@H]1[C@H](NC(=O)/C(=N\OC(C)(C)C(=O)O)c2csc(N)n2)C(=O)N1S(=O)(=O)O [AZTREONAM]
MIC (Escherichia coli [1]): 4 µg/mL (≈ 9.19 µM)
Stability [2]: Unstable
MIC (Escherichia coli [3]): 16 µg/mL (≈ 36.7 µM)
MIC (Escherichia coli [4]): 1 µg/mL (≈ 2.3 µM)
Activity (Klebsiella pneumoniae): inactive
AUC [5]: 13000 ng·h/mL
MIC (Escherichia coli [6]): 128 µg/mL (≈ 294 µM)
MIC (Escherichia coli [7]): > 1020 µg/mL
Stability (Beta-lactamase SHV-12): Unstable
MIC (Escherichia coli [8]): 8 µg/mL (≈ 18.4 µM)
Stability [9]: Unstable
MIC (Escherichia coli [10]): 1 µg/mL (≈ 2.3 µM)
dose excreted [11]: 40%
AUC [12]: 5000 ng·h/mL
MIC (Escherichia coli [13]): 8 µg/mL (≈ 18.4 µM)
dose excreted [14]: 53%
MIC (Escherichia coli [15]): 1 µg/mL (≈ 2.3 µM)
MIC (Escherichia coli [16]): 4 µg/mL (≈ 9.19 µM)
MIC (Escherichia coli [17]): 4 µg/mL (≈ 9.19 µM)
MIC (Escherichia coli [18]): 8 µg/mL (≈ 18.4 µM)
MIC (Escherichia coli [19]): 16 µg/mL (≈ 36.7 µM)
MIC (Escherichia coli [20]): 256 µg/mL (≈ 588 µM)
MIC (Escherichia coli [21]): 1 µg/mL (≈ 2.3 µM)
MIC (Escherichia coli [22]): 16 µg/mL (≈ 36.7 µM)
AUC [23]: 13000 ng·h/mL
MIC (Escherichia coli [24]): 16 µg/mL (≈ 36.7 µM)
MIC (Escherichia coli [25]): 8 µg/mL (≈ 18.4 µM)

NC(=O)OC[C@@H]1[C@H](NC(=O)/C(=N\OCC(=O)O)c2csc(N)n2)C(=O)N1S(=O)(=O)O [CARUMONAM]
MIC (Escherichia coli [26]): 1 µg/mL (≈ 2.14 µM)
MIC (Escherichia coli [27]): > 64 µg/mL
MIC (Escherichia coli [1]): 4 µg/mL (≈ 8.58 µM)
MIC (Escherichia coli [28]): 0.125 µg/mL (≈ 0.268 µM)
Stability [2]: Stable
MIC (Escherichia coli [3]): 0.125 µg/mL (≈ 0.268 µM)
MIC (Escherichia coli [4]): 0.125 µg/mL (≈ 0.268 µM)
MIC (Escherichia coli [29]): 0.125 µg/mL (≈ 0.268 µM)
MIC (Escherichia coli [30]): 0.125 µg/mL (≈ 0.268 µM)
MIC (Escherichia coli [31]): 0.06 to 0.125 µg/mL (≈ 0.129 to 0.268 µM)
MIC (Escherichia coli [6]): 64 µg/mL (≈ 137 µM)
MIC (Escherichia coli [32]): 32 µg/mL (≈ 68.6 µM)
MIC (Escherichia coli [33]): 0.125 µg/mL (≈ 0.268 µM)
MIC (Escherichia coli [7]): > 64 µg/mL
MIC (Escherichia coli [34]): 4 µg/mL (≈ 8.58 µM)
Stability (Beta-lactamase SHV-12): Unstable
MIC (Escherichia coli [35]): > 64 µg/mL
MIC (Escherichia coli [36]): 0.125 µg/mL (≈ 0.268 µM)
MIC (Escherichia coli [37]): 0.125 µg/mL (≈ 0.268 µM)
MIC (Escherichia coli [38]): 0.125 µg/mL (≈ 0.268 µM)
MIC (Escherichia coli [39]): 0.125 µg/mL (≈ 0.268 µM)
MIC (Escherichia coli [8]): 8 µg/mL (≈ 17.2 µM)
Stability [9]: Stable
MIC (Escherichia coli [10]): 1 µg/mL (≈ 2.14 µM)
MIC (Escherichia coli [40]): 0.125 µg/mL (≈ 0.268 µM)
MIC (Escherichia coli [13]): 0.5 µg/mL (≈ 1.07 µM)
MIC (Escherichia coli [41]): 0.125 µg/mL (≈ 0.268 µM)
MIC (Escherichia coli [15]): 16 µg/mL (≈ 34.3 µM)
MIC (Escherichia coli [42]): 0.125 µg/mL (≈ 0.268 µM)
MIC (Escherichia coli [16]): 4 µg/mL (≈ 8.58 µM)
MIC (Escherichia coli [17]): 4 µg/mL (≈ 8.58 µM)
MIC (Escherichia coli [18]): 4 µg/mL (≈ 8.58 µM)
MIC (Escherichia coli [19]): 2 µg/mL (≈ 4.29 µM)
MIC (Escherichia coli [43]): 0.125 µg/mL (≈ 0.268 µM)
MIC (Escherichia coli [20]): > 64 µg/mL
MIC (Escherichia coli [44]): 0.125 µg/mL (≈ 0.268 µM)
MIC (Escherichia coli [45]): 0.125 µg/mL (≈ 0.268 µM)
MIC (Escherichia coli [21]): 0.5 µg/mL (≈ 1.07 µM)
MIC (Escherichia coli [46]): 64 µg/mL (≈ 137 µM)
MIC (Escherichia coli [47]): 0.125 µg/mL (≈ 0.268 µM)
MIC (Escherichia coli [48]): 0.125 µg/mL (≈ 0.268 µM)
MIC (Escherichia coli [49]): 16 µg/mL (≈ 34.3 µM)
MIC (Escherichia coli [22]): 0.5 µg/mL (≈ 1.07 µM)
MIC (Escherichia coli [50]): 4 µg/mL (≈ 8.58 µM)
half-life [51]: > 83.3 days
MIC (Escherichia coli [24]): 0.5 µg/mL (≈ 1.07 µM)
MIC (Escherichia coli [52]): > 64 µg/mL
MIC (Escherichia coli [25]): 1 µg/mL (≈ 2.14 µM)
